Measurements as given in US7078499B2, “Nucleotide analogues comprising a reporter moiety and a polymerase enzyme blocking moiety” (GE Healthcare UK Limited, priority 2000, dated 2006).

Molecular target: T1, Taq DNA polymerase (Thermus aquaticus, UniProt P19821)
T1 construct: purchased APBiotech
Assay: Thermostable DNA polymerase primer extension, Taq
Assay type: biochemical
Design: key to result of incorporation (termination / further chain extension): T: Incorporation results in termination; E: Incorporation permits further chain extension; T/E: Predominant product is primer extended by one base, but evidence of some further extension also observed
Conditions: DNA template, 45° C. for 20–40 minutes; for primer extended by at least one base within assay time (grade): TTP replaced entirely by test compound
Protocol: DNA polymerase assays were performed using Sequence 1 as primer and Sequence 2 as template. • Sequence 1 5′[Cy3]TAACTCATTAACAGGATC 3′ • Sequence 2 5′AT TCGCGGTATTCTGGTATGAAGCTTTTAGATCCTGTTAATGAGTTA GTA3′
The template (Sequence 2) was designed such that the base (underlined) immediately adjacent to the 3′ end of the hybridised primer is complementary to the nucleotide test compound. Nucleotide test compounds were compounds (6) (4′-C-(glycylaminomethyl)thymidine triphosphate), (8) (4′-C-(N-trifluoroacetyaminomethyl)thymidine triphosphate) and (9) (4′-C-(aminomethyl)thymidine triphosphate) as described above.
Primer extension reactions were performed using the above primers in the presence of 40 to 80 μM of nucleotide triphosphates. Positive control reactions contained all four native nucleotide triphosphates. For the other reactions the TTP was replaced with either a 2:1 ratio of […] for the terminator control, or entirely by the test compound The enzymes were used at a final concentration of 0.175 units/μl and a magnesium ion concentration of 2.5 mM in buffers supplied by the manufacturer. The primer and template concentrations were 0.5 pmol/μl and 2 pmol/μl respectively.
Extension reactions with thermophilic enzymes were performed by initially denaturing the fully assembled reactions at 70° C. for 5 min. followed by 45° C. for 20–40 minutes. The following enzymes were used: Taq DNA polymerase (Taq); Thermosequenase (TS); Thermosequenase II (TSII); Thermosequenase E (TSE), Tfl DNA polymerase (Tfl); Tth DNA polymerase (Tth), deltaTts DNA polymerase (deltaTts), deltaTts D DNA polymerase (dettaTTSD) (all from APBiotech); Pfu DNA polymerase (Pfu) (Stratagene Ltd); Vent™ DNA polymerase (Vent) (New England Biolabs).
The reactions were stopped by adding a 0.5 volume aliquot of 80% formamide containing 0.1% (w/v) bromophenol blue and 0.1% (w/v) cresol blue. The reaction products were separated by denaturing gel electrophoresis at a constant power of 45 W on 16% polyacrylamide gels containing 50% urea.
Gels were scanned for Cy3 fluorescence on a Molecular Dynamics Fluorimager and the data analysed using Molecular Dynamics ImageQuant 5 software.
The incorporation of a test nucleotide triphosphate results in the appearance on a polyacrylamide gel of a single band corresponding to a single base extension product. If, however, the enzyme adds additional bases then further bands would be observed that corresponded to either the full-length product or positions of other complementary bases in the template.

T1 sequence (P19821 whole entry): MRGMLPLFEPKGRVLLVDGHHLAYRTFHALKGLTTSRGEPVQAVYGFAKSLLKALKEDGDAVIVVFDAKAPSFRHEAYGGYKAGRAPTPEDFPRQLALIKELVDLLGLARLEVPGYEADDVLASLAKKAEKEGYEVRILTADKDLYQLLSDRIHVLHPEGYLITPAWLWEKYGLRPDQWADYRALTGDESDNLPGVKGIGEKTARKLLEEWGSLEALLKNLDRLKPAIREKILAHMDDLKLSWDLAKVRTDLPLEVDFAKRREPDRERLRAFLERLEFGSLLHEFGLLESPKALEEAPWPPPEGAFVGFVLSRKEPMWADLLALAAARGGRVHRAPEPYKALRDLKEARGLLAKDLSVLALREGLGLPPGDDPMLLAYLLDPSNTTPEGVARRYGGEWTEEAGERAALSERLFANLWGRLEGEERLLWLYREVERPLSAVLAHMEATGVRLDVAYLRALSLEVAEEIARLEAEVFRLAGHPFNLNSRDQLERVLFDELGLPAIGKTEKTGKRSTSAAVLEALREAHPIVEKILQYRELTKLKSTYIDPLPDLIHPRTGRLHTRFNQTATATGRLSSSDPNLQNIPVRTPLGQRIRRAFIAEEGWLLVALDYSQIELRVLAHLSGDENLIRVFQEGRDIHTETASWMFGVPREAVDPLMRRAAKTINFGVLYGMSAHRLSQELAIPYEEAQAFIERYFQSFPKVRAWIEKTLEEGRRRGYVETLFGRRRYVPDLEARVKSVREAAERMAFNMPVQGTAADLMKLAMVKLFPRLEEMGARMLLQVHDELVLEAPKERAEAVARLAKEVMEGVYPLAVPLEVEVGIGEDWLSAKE

Row | Molecule | result of incorporation (termination / further chain extension) | primer extended by at least one base within assay time (grade)
1 | 4′-C-(Aminomethyl)thymidine triphosphate [compound (9)] | T | +/− (up to 25% of primer extended by at least one base within assay time)
2 | 4′-C-(Glycylaminomethyl)thymidine triphosphate [compound (6)] | T | +/− (up to 25% of primer extended by at least one base within assay time)
3 | Cc1cn([C@H]2C[C@H](O)[C@@](CNC(=O)C(F)(F)F)(COP(=O)(O)OP(=O)(O)OP(=O)(O)O)O2)c(=O)[nH]c1=O [compound (8), 4′-C-(N-trifluoroacetylaminomethyl)thymidine triphosphate] | T | +/− (up to 25% of primer extended by at least one base within assay time)
